Measured values: US20250248393A1, “METHOD OF RELEASING A SEMIOCHEMICAL IN THE ENVIRONEMENT BY PASSIVE DIFFUSION, SYSTEM AND MEANS, ESPECIALLY STICKS, TO THIS END, AND USES THEREOF” (SIGNS, priority 2024, published 2025)

Assays:
Assay type in all cases: physicochemical
[1] = Mass loss of PCDS diffuser with isopropyl myristate as solvent; conditions: 2% F3 in isopropyl myristate, 170 grams, over 14 days
Procedure: The first step in solvent validation consists in preparing a device comprising a glass bottle containing a 2% solution of a known pheromone (feline facial pheromone F3) in isopropyl myristate (also termed Myristic acid isopropyl ester, IUPAC name Propan-2-yl tetradecanoate). The initial weight of solution placed in the bottle is 170 grams. Monitoring is carried out over 14 days, with weighing at DO, D7 and D14.

[2] = DAP PCDS direct diffusion (SPME-GC/MS); conditions: DAP/PCDS diffuser, 40 mL, 6 capillaries
Procedure: Three diffusers, each containing 40 mL of solution and 6 capillaries, were prepared and diffused. The first points were measured at T=1d, T=2, and T=3d, then every Monday, Wednesday and Friday of each study week until the diffusers no longer contained any solution. To measure the pheromone released into the air at each study time, the diffuser is first weighed (with the sticks) to measure mass loss, then placed in an enclosed area (in this case, an upside-down aquarium) containing a SPME fiber, as shown in FIG. 24.
The fiber is left to diffuse above the diffuser for 2 hours (a time determined in a previous method development as the optimum time for molecules to adsorb to the phase), then analyzed using the gas chromatography/mass spectrometry (GC/MS) technique.
Three diffusers were studied for greater accuracy. The chromatograms obtained are reprocessed using GC/MS Solution software.
For each chromatographic peak, the area is recorded using GC/MS Solution software, then entered into an Excel spreadsheet. Diffusion curves giving the area of the chromatographic peak corresponding to each active ingredient as a function of time are then plotted.
Analyses were carried out by gas chromatography/mass spectrometry (GC/MS). The instrument was a Shimadzu GCMS QP2010SE® equipped with an AOC 6000® autosampler. Separation was carried out on a ZB-FFAP® column (30 m×0.25 mm×0.25 μm, stationary phase: nitroterephthalic acid-modified polyethylene glycol) supplied by Phenomenex. The furnace temperature was initially set at 80° C. for 1 minute, then increased at 10° C./min to 240° C. and maintained at this temperature for 2 minutes. The carrier gas was helium at a flow rate of 1 mL/min. Analysis time is 19 minutes.
The injector is a split/splitless injector used in split mode (temperature: 250° C., split: 50:1). The SPME fiber was injected directly into the injector and left to desorb for 15 minutes.
The separated molecules were detected using a mass spectrometer equipped with an electron impact source (temperature: 200° C.). The analyzer is a simple quadrupole. The interface temperature is 250° C. Data were acquired in FASST mode (Fast automated SCAN/SIM type), i.e. part of the analysis was performed by scanning all ions (SCAN) and part by selecting specific ions (SIM). Target molecules were thus analyzed using ion selection.

[3] = Ratios of molecules diffused through the sticks over time
Procedure: Furthermore, as small molecules diffuse more, it happens that they lose intensity over the course of the study, so the ratios are different 24 hours after immersing the sticks in the liquid and 21 days later. Here are the ratios for each pheromone studied at the start of the study and at the end.

[4] = DAP quantification at the top of the capillaries (GC/FID); conditions: top of the rods
Procedure: For this study, three diffusers containing 40 mL of solution and 6 capillaries were used for diffusion. Each week, a diffuser was weighed and the pheromone contained in the liquid solution and on the top of the capillaries was quantified by gas chromatography with flame ionization detector (GC/FID). To quantify the pheromone at the top of the capillaries, approximately 1 cm of the top of the capillaries is cut off with scissors and 0.1 g of the capillary tops is placed in a 25 mL volumetric flask. Acetone is then added up to the beginning of the neck, and the flask is placed in an ultrasonic bath for one hour. Acetone is then topped up to volume, and an aliquot of solution is taken and filtered through a syringe filter for GC/FID analysis. DAP is then quantified by external calibration. For this, five solutions with concentrations ranging from 50% to 150% of the target value (100% being the target value) are prepared to cover a wide concentration range (protocol for preparing the standard range not shown but available). Analyses were carried out using gas chromatography with a flame ionization detector. The instrument was a Shimadzu GC 2025AF® equipped with an AOC20i® autosampler. Separation was carried out on a DB-WAX UI® column (20 m×0.18 mm×0.30 μm, polyethylene glycol (PEG) stationary phase) supplied by Agilent. The oven temperature was initially set at 90° C. and held for 2 minutes, then increased at 20° C./min to 160° C. and held at this temperature for 5 minutes. Finally, the temperature was increased at 20° C./min to 220° C. and held at this temperature for 5 minutes. The carrier gas is helium at a flow rate of 1 mL/min. Analysis time was thus 18.5 minutes. The injector is a split/splitless injector used in split mode (temperature: 230° C., split: 50:1, injected quantity: 1 μL). The detector is a flame ionization detector (FID). Its temperature is 240° C., the hydrogen flow rate is 40 mL/min and the air flow rate is 400 mL/min. A cleaning gas, dinitrogen, is also present at a flow rate of 30 mL/min.

[5] = F3P PCDS indirect diffusion, pheromone remaining in solution (GC/FID)
Procedure: For this study, three diffusers each containing 40 mL of product and 6 capillaries were prepared and diffused. Once a week, on Wednesdays, the amount of pheromone remaining in the solution was monitored by gas chromatography analysis coupled to a flame ionization detector (GC/FID) until no liquid remained. The percentage of pheromone was measured weekly.
Next, the percentage of pheromone was checked by external calibration using a GC/FID calibration range.
Analyses were carried out by gas chromatography coupled to a flame ionization detector. The instrument was a Shimadzu GC 2025® with an AOC20i® autosampler. Separation was performed on an Agilent DB-FFAP® column (30 m×0.25 mm×0.25 μm, stationary phase: nitroterephthalic acid-modified polyethylene glycol). The temperature of the gas chromatography oven was initially maintained at 140° C. for 2 minutes, then increased at 10° C./min to 250° C. and left at this temperature for 3 minutes. The carrier gas was helium at 1 mL/min. Analyses were performed in split mode using a split/splitless injector (temperature: 250° C., split: 1:50).
The detector used was a flame ionization detector. The detector temperature was 250° C. with an air flow rate of 400 mL/min, hydrogen 40 mL/min and nitrogen 30 mL/min.
For this purpose, a calibration range was prepared for each analysis. […]

[6] = Direct diffusion of diffuser blocks (SPME GC/MS); conditions: despecified pheromone 2%, 4 weeks
Procedure: Analyses were carried out using gas chromatography (GC) coupled to a mass spectrometer (MS) detector, a technique commonly referred to as GCMS. The molecules of interest were extracted using the Solid Phase Micro-Extraction (SPME) technique. The instrument used was the following: QP2010SE® from Shimadzu (See FIG. 4).
AOC 6000® automatic feeder • Extraction/SPME fiber: polyacrylate/Fused silica (85 μm), 23 Ga. • Adsorption time: 2 hours (exposure time of fiber above block) (See FIG. 4) • Desorption time: 30 minutes (fiber exposure time in injector) • Fiber-block distance: 2 cm • Injection: split/splitless injector • Temperature: 250° C., split 50 mode. • Separation: ZB-FFAP® column (Phénomenex), length: 30 m, diameter: 250 μm, film thickness: […]
• Carrier gas: Helium (He) • Analysis time: 18 min (not including time to return to equilibrium between each analysis injection • Detection: mass spectrometer with electron impact source/analyzer: quadrupole. • Source temperature: 200° C. • Interface temperature: 250° C. • Scan m/z 50 to m/z 500 • SIM with ions 55, 66 and 74.
Analyses were carried out in triplicate to verify reproducibility of results.
With the SPME method, results are evaluated by measuring the chromatographic peak area. The data have been plotted on diffusion curve (see FIGS. 5 and 6).

[7] = Indirect assay of rod diffuser solution (GC/FID); conditions: stick diffuser solution, despecified pheromone
Procedure: Solution integrity was checked at each analysis time. Before each indirect assay, the vial was weighed to visualize mass loss over time. Each vial contained six sticks. • Specifications: the solution must lose mass over time. • Result: Compliant—See FIG. 9 This is the same analytical method as for the diffuser block study, only the sample preparation differs. 1.25 g of solution were weighed into a 25 mL volumetric flask and the volume made up to the mark with acetone. The resulting solution is transferred to a 1.5 mL GC vial for analysis. This is exactly the same calibration range as for the diffuser block study.

[8] = Pheromone migrated to the stick tips (GC/FID); conditions: on stick tips, despecified pheromone
Procedure: In the course of this study, we also measured the amount of pheromone migrating on the sticks, to check that the pheromone had migrated to the top of the sticks, helping it to diffuse into the air. To do this, the test is the same as for the diffuser blocks: 2.5 g of stick tips are cut off and placed in a 50 mL flask, which is then placed in an ultrasonic bath for one hour. The resulting solution is filtered (to avoid injecting particles into the instrument) and placed in a chromatographic vial for analysis.

[9] = Indirect assay of diffuser blocks (GC/FID, pheromone remaining in the block); conditions: despecified pheromone
Procedure: Analyses were carried out using the gas chromatography (GC) technique with a flame ionization detector (FID), commonly known as GC/FID. The instrument used was the Shimadzu GC2025.® • Injection: Quantity injected: 1 μL, split 50:1, temperature: 230° C. • Separation: DB-WAX column (Agilent), length: 20 m, diameter: 180 μm, film thickness: […] • Carrier gas: Helium (He) • Analysis time: 11.50 min (not including time to return to equilibrium between each analysis) injection). • Detection: FID, temperature: 250° C., flow rates: H2: 40 mL/min, Air: 400 mL/min, Nitrogen (make-up): 30 mL/min. To obtain a representative sample, “cores” were drilled at various positions in the block and then collected. 2.5 g of gel were weighed into a 50 mL volumetric flask and the volume made up to the beginning of the neck of the flask with acetone. The flask was then placed in an ultrasonic bath for one hour until the block was dissolved (a white precipitate was obtained), then acetone was added to the mark. An aliquot of this solution was placed in a syringe fitted with a syringe filter and filtered to obtain a translucent solution. The resulting solution was transferred to a 1.5 mL GC vial for analysis. The assays were carried out using a calibration range.

[10] = Direct diffusion of rod diffuser (SPME GC/MS); conditions: despecified pheromone 2%
Procedure: This is exactly the same analytical method used for the diffuser block study. The study setup is shown below, also with a two-hour adsorption time-See FIG. 12 showing the set-up. Because of the height of the passive diffusion device, the fiber mounting bracket will not be the same for the block and for the rod device. The distance between the fiber and the device is 10 cm. With the SPME method, results are evaluated by measuring the chromatographic peak area. The data have been plotted to produce a diffusion curve.

[11] = DAP, 24 h after immersion of sticks
[12] = DAP, 21 days after immersion of sticks (empty tank)
[13] = F3P, 24 h after immersion of the sticks
[14] = F3P, 21 days after immersion of sticks (empty tank)

## CCCCCCCCCCCCCC(=O)OC(C)C [isopropyl myristate, Propan-2-yl tetradecanoate]
[1]
  mass loss of the PCDS diffuser: virtually non-existent

## CCCCCCCCCCCC(=O)OC [methyl laurate, methyl dodecanoate]
[2]
  direct diffusion over time: decreases slightly over time
[3]; [11]
  ratio of molecules diffused through the sticks: 51 % (w/w)
[3]; [12]
  ratio of molecules diffused through the sticks: 37 % (w/w)
[3]; [13]
  ratio of molecules diffused through the sticks: 20 % (w/w)
[3]; [14]
  ratio of molecules diffused through the sticks: 17.5 % (w/w)
[4]; T = 6 j (instead of 2%)
  Proportion of methyl laurate in the DAP pheromone: laurate: 1.2%
[4]; T = 22 j (instead of 2%)
  Proportion of methyl laurate in the DAP pheromone: laurate: 0.4%
[4]; T = 13 d (instead of 2%)
  Proportion of methyl laurate in the DAP pheromone: laurate: 0.5%
[5]
  quantities found in the solution: very low

## CCCCCCCCCCCCCC(=O)OC [methyl myristate, methyl tetradecanoate]
[6]
  direct diffusion from the diffuser block: diffuse better
[7]; day 0
  % of the active ingredient in the pheromone: 11.9%
[7]; day 7
  % of the active ingredient in the pheromone: 11.9%
[7]; day 14
  % of the active ingredient in the pheromone: 11.9%
[7]; day 21
  % of the active ingredient in the pheromone: 11.4%
[2]
  direct diffusion over time: stable over time
[8]; day 7
  % of the active ingredient in the pheromone: 9.2%
[8]; day 14
  % of the active ingredient in the pheromone: 8.2%
[8]; day 21
  % of the active ingredient in the pheromone: 6.4%
[9]; day 0
  % of the active ingredient in the pheromone: 12%
[9]; day 7
  % of the active ingredient in the pheromone: 11.9%
[9]; day 14
  % of the active ingredient in the pheromone: 11.9%
[9]; day 21
  % of the active ingredient in the pheromone: 11.7%
[9]; day 28
  % of the active ingredient in the pheromone: 11.7%
[10]
  direct diffusion, rod system compared with diffuser block: better in the blocks than in the rod system
[3]; [11]
  ratio of molecules diffused through the sticks: 27 % (w/w)
[3]; [12]
  ratio of molecules diffused through the sticks: 33.5 % (w/w)
[3]; Despecified pheromone (Core), 5 days after immersion of the sticks
  ratio of molecules diffused through the sticks: 76 % (w/w)
[3]; Despecified pheromone (Core), 21 days after immersion of sticks (empty tank)
  ratio of molecules diffused through the sticks: 70 % (w/w)
[3]; [13]
  ratio of molecules diffused through the sticks: 4 % (w/w)
[3]; [14]
  ratio of molecules diffused through the sticks: 8.7 % (w/w)
